Reference: patent US20040209897A1 (Pharmacia Corporation, priority 2002, published 2004)
pIC50: −log10 of the molar value. Where a name gives a salt, the structure may show the parent alone.

Key:
[1] = test system: granulomas; conditions: laboratory rats; cited from earlier work
[2] = test system: SCW-induced arthritis; test: Streptococcus cell wall (SCW)-induced arthritis, paw volume / paw swelling; format: in vivo; conditions: rats, FIG. 4, A at 20, 60, 200 mpk/day, B at 60, 120, 240 mpk/day
[3] = test system: streptococcal cell wall (SCW)-induced arthritis; test: Chronic streptococcal cell wall (SCW)-induced arthritis in Lewis rats, paw volume; format: in vivo; conditions: female Lewis rats, daily dosing from day 10, paw volume measured 11 days after start of administration, A at 200, 60, 20 mpk/day, B at 240, 120, 60 mpk/day, FIG. 3
From the text: The use of Lewis rats with chronic streptococcal cell wall (SCW)-induced arthritis as models for testing potentially therapeutic compounds has been described by Richards, P. J., et al., Rhermatology (Oxford), 40(9):978-987 (2001), and Melay, L. M. et al, Bioorg. Med. Chem., 9(2):537-554 (2001), among others. In the present test, female Lewis rats were divided into eight groups. One group served as the “normal” control and received no arthritis inducement. Chronic streptococcal cell wall (SCW)-induced arthritis was induced in the remaining seven groups. One of the severn groups in which arthritis was induced served as a “vehicle” control and received dosage only of vehicle at the same intervals as those rats receiving the test compounds. Three additional groups of rats received the vehicle plus 2-{2-[(E)-2-phenylethenyl]pyridin-4-yl}-1,5,6,7-tetrahydro-4H-pyrrolo[3,2-c]pyridin-4-one (Compound “A”) in daily dosages. All rats were started on the test at day 0. […]
To measure the effectiveness of the compounds for the treatment of SCW-induced arthritis, rat paw volume was measured at eleven (11) days from the initiation of administration of the test compounds. […]

[4] = test system: collagen-induced arthritis; conditions: mouse; cited from earlier work
[5] = test system: MK-2; conditions: cited from earlier work
[6] = test system: adjuvant arthritis; conditions: rat; cited from earlier work
[7] = test system: endotoxin-induced shock; conditions: murine model of endotoxin-induced shock; cited from earlier work
[8] = molecular target: Recombinant MAPKAPK2 (MK-2) (Homo sapiens, UniProt P49137); test: Determination of MK-2 IC50 (HSP-peptide phosphorylation, anion exchange resin capture assay); format: biochemical; conditions: for pIC50: MAPKAP2 Avg. IC50
Sequence of Recombinant MAPKAPK2 (MK-2) (P49137 whole entry, species assumed): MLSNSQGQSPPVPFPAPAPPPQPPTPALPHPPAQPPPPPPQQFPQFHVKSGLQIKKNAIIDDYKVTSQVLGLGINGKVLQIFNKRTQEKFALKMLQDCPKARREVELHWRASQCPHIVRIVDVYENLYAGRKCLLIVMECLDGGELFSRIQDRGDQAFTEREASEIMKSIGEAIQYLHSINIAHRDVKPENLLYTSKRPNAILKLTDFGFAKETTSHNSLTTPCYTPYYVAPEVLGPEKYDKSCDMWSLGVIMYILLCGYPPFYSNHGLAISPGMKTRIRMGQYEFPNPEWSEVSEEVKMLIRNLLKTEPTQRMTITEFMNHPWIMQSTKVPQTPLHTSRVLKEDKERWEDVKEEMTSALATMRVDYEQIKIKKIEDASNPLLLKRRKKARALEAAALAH
Method: The phosphorylation of HSP-peptide ([sequence]) by MAPKAPK2 was measured using an anion exchange resin capture assay method. […] The reaction was terminated and [γ^33P]ATP was removed from solution by the addition of 150 μl of AG 1×8 ion exchange resin in 900 mM sodium formate pH 3.0. A 50 μl aliquot of head volume was removed from the quenched reaction mixture and added to a 96-well plate, 150 μl of Microscint-40 (Packard) was added and the amount of phosphorylated-peptide was determined.
Compounds are evaluated as potential inhibitors of the MK2 kinase by measuring their effects on MK2 phosphorylation of the peptide substrate. Compounds may be screened initially at two concentrations prior to determination of IC50 values. Screening results are expressed as percent inhibition at the concentrations of compound tested. For IC50 value determinations, compounds are tested at six concentrations in ten-fold serial dilutions with each concentration tested in triplicate. Results are expressed as IC50 values in micromolar. The assay is performed at a final concentration of 2% DMSO.

Nc1nccc(-c2c(-c3ccc(F)cc3)ncn2C2CCNCC2)n1 [SB 220025]
vascular density of granulomas [1]: significant dose-dependent decrease

O=C1NCCc2[nH]c(-c3ccnc(/C=C/c4ccccc4)c3)cc21 [Compound A, 2-{2-[(E)-2-phenylethenyl]pyridin-4-yl}-1,5,6,7-tetrahydro-4H-pyrrolo[3,2-c]pyridin-4-one]
percent inhibition in paw swelling as a function of the dosage rate [2]: typical dose-response behavior | average paw volume (increase versus vehicle controls) [3]: significantly lower increases in paw volume

C[S+]([O-])c1ccc(-c2nc(-c3ccncc3)c(-c3ccc(F)cc3)[nH]2)cc1 (stereo not drawn) [SB203580]
development of collagen-induced arthritis [4]: inhibit the development | inhibition of activation of MK-2 [5]: inhibit activation | development of adjuvant arthritis [6]: inhibit the development | mortality [7]: reduce mortality

O=C(O)C(F)(F)F.O=C1NCCc2[nH]c(-c3ccnc(-c4ccccc4F)c3)cc21 [B, 2-[2-(2-fluorophenyl)pyridin-4-yl]-1,5,6,7-tetrahydro-4H-pyrrolo[3,2-c]pyridin-4-one trifluoroacetate]
percent inhibition in paw swelling as a function of the dosage rate [2]: typical dose-response behavior | average paw volume (increase versus vehicle controls) [3]: significantly lower increases in paw volume

C=CC(=O)Nc1cccc(-c2cc(-c3cc4c([nH]3)CCNC4=O)ccn2)c1 [N-[3-[4-(4-oxo-4,5,6,7-tetrahydro-1H-pyrrolo[3,2-c]pyridin-2-yl)pyridin-2-yl]phenyl}acrylamide]
kind of MK-2 inhibition (irreversible) [8]: irreversible inhibitor

Cc1ccc(-c2cc(-c3cc4c([nH]3)CCNC4=O)ccn2)cc1F [Example 150, trifluoroacetate]
pIC50 [8]: 7.56

O=C1NCCc2[nH]c(-c3ccnc(/C=C/c4ccccc4N4CCNCC4)c3)cc21 [Example 667, trifluoroacetate]
pIC50 [8]: 6.10
